Test results reported in patent US20100129434A1, “COMPOSITIONS AND METHODS FOR THE TREATMENT OF MUCORMYCOSIS AND OTHER FUNGAL DISEASES” (priority 2006, published 2010).
≈ marks a conversion by molar mass, not a printed value. Like-named read-outs stand apart in the source and are kept apart here.

How the values were obtained:
R. oryzae 99-892 = assay: Kidney histopathology of DKA mice infected with R. oryzae; format: in vivo; conditions: 10 mg/kg bid
Method: For in vivo infection, BALB/c male mice (>20 g) were rendered diabetic with a single i.p. injection of 210 mg/kg streptozotocin in 0.2 ml citrate buffer 10 days prior to fungal challenge. Glycosuria and ketonuria were confirmed in all mice 7 days after streptozotocin treatment. For neutropenic mouse model, mice were injected with a single i.p. dose of 200 mg/kg cyclolphosphamide (Bristol Myer Squibb) 2 days prior to infection with R. oryzae. […] Mice were infected through the tail vein with the appropriate inocula of R. oryzae. To confirm the inocula, dilutions were streaked on PDA plates containing 0.1% triton and colonies were counted following a 24 h incubation period at 37° C. The primary efficacy endpoint was time to death. As a secondary endpoint, brain fungal burden (the primary target organ) was determined by homogenization by rolling a pipette on organs placed in Whirl-Pak™ bags (Nasco®, Fort Atkinson, Wis.) containing 1 ml saline. The homogenate was serially diluted in 0.85% saline and then quantitatively cultured on PDA. Values were expressed as log10 cfu g−1 tissue. […]
To determine the impact of deferasirox on tissue fungal burden, diabetic ketoacidotic mice were infected via the tail-vein with 4.2×10^4 spores of R. oryzae 99-892. […] Kidneys and brains were removed on day four, homogenized, and quantitatively cultured.

Mucor spp. = assay: Deferasirox susceptibility testing (MIC/MFC), Mucor clinical isolates; format: cell-based
Method: Minimum inhibitory concentration (MIC) and minimum fungicidal concentration (MFC) were determined for deferasirox by the method of Espinel-Ingroff using R. oryzae spores starved for iron (Espinel-Ingroff, (2001), supra). Cidality was defined as a <4-fold difference between MIC and MFC.
We next determined the deferasirox susceptibilities of multiple clinical isolates of Mucorales (Table 3). The MIC9OS of deferasirox against Mucor, non-oryzae Rhizopus spp., and R. oryzae were 3.12 to 6.25 μg/ml. MFCs were similar to MICs, and deferasirox was cidal for 28/29 (97%) of isolates. Of note, slight growth was seen within the first twelve hours even at extremely high concentrations of deferasirox. […] Furthermore, the MICs and MFCs of deferasirox against these isolates were well below clinically achievable peak (˜38 μg/ml) and trough serum levels (˜17 μg/ml) of the drug at steady state when administered at the FDA-approved starting dose (20 mg/kg/d).

With `O=C(O)c1ccc(-n2nc(-c3ccccc3O)nc2-c2ccccc2O)cc1` [Deferasirox, 4-[3,5-Bis(2-hydroxyphenyl)-1H-1,2,4-triazol-1-yl]-benzoic acid] the “hyphae in kidneys by histopathology” value (R. oryzae 99-892) was “no visible hyphae”, the “neutrophil influx in the kidneys” value (R. oryzae 99-892) was “prominent” and the “Fungicidal?” value (Mucor spp.; Mucor 97-1083, 24 h) was “Y (Cidal = MFC/MIC ≦ 4)”. The “Fungicidal?” value (Mucor spp.; Mucor 97-1083, 48 h) was “Y (Cidal = MFC/MIC ≦ 4)”, the “Fungicidal?” value (Mucor spp.; Mucor ramosissumus 97-1192, 24 h) was “Y (Cidal = MFC/MIC ≦ 4)” and the MFC (Mucor spp.; Mucor ramosissumus 97-1192, 24 h, read-out: MFC) was 0.78 µg/mL (≈ 2.09 µM). For the same molecule, the MIC (Mucor spp.; Mucor ramosissumus 97-1192, 24 h, read-out: MIC) was 0.78 µg/mL (≈ 2.09 µM), the “Fungicidal?” value (Mucor spp.; Mucor ramosissumus 97-1192, 48 h) was “Y (Cidal = MFC/MIC ≦ 4)” and the MFC (Mucor spp.; Mucor ramosissumus 97-1192, 48 h, read-out: MFC) was 0.78 µg/mL (≈ 2.09 µM). The MIC (Mucor spp.; Mucor ramosissumus 97-1192, 48 h, read-out: MIC) was 0.78 µg/mL (≈ 2.09 µM), the “Fungicidal?” value (Mucor spp.; Mucor sp. 99-932, 24 h) was “Y (Cidal = MFC/MIC ≦ 4)” and the “Fungicidal?” value (Mucor spp.; Mucor sp. 99-932, 48 h) was “Y (Cidal = MFC/MIC ≦ 4)”. The “Fungicidal?” value (Mucor spp.; Mucor spp. MIC90/MFC90, 24 h) was “Y (Cidal = MFC/MIC ≦ 4)”, the MFC90 (Mucor spp.; Mucor spp. MIC90/MFC90, 24 h) was 3.12 µg/mL (≈ 8.36 µM) and the “Fungicidal?” value (Mucor spp.; Mucor spp. MIC90/MFC90, 48 h) was “Y (Cidal = MFC/MIC ≦ 4)”. The MFC90 (Mucor spp.; Mucor spp. MIC90/MFC90, 48 h) was 3.12 µg/mL (≈ 8.36 µM), the MIC90 (Mucor spp.; Mucor, 24 h) was 3.12 µg/mL (≈ 8.36 µM) and the MFC (Mucor spp.; Mucor, 24 h, Mucor 97-1083) was 3.12 µg/mL (≈ 8.36 µM). The MIC (Mucor spp.; Mucor, 24 h, Mucor 97-1083) was 3.12 µg/mL (≈ 8.36 µM), the MFC (Mucor spp.; Mucor, 24 h, Mucor sp. 99-932) was 3.12 µg/mL (≈ 8.36 µM) and the MIC (Mucor spp.; Mucor, 24 h, Mucor sp. 99-932) was 3.12 µg/mL (≈ 8.36 µM). For the same molecule, the MIC90 (Mucor spp.; Mucor, 48 h) was 3.12 µg/mL (≈ 8.36 µM), the MFC (Mucor spp.; Mucor, 48 h, Mucor 97-1083) was 3.12 µg/mL (≈ 8.36 µM) and the MIC (Mucor spp.; Mucor, 48 h, Mucor 97-1083) was 3.12 µg/mL (≈ 8.36 µM). For the same molecule, the MFC (Mucor spp.; Mucor, 48 h, Mucor sp. 99-932) was 3.12 µg/mL (≈ 8.36 µM) and the MIC (Mucor spp.; Mucor, 48 h, Mucor sp. 99-932) was 3.12 µg/mL (≈ 8.36 µM).
